Measurements published in publication PMC10535256 (ACS Omega, 2023).
pKd: −log10 of the molar value.

Target: PehR (Ralstonia pseudosolanacearum, UniProt Q8XVM3)
Assay: biochemical

PehR, sequence (Q8XVM3 1-570): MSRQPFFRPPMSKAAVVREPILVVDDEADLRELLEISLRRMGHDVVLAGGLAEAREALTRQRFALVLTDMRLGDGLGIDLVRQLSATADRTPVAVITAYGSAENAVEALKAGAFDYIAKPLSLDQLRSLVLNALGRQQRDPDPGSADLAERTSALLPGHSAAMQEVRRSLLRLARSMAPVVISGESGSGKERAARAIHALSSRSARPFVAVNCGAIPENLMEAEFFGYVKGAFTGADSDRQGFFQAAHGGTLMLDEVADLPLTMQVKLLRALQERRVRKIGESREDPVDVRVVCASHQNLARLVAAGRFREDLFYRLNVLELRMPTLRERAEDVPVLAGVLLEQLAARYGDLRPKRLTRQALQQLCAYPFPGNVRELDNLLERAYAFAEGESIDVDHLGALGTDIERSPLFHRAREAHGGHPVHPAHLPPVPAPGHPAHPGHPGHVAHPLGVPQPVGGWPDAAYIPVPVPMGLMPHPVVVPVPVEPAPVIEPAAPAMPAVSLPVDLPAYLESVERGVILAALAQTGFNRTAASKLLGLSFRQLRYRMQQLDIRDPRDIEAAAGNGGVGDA

Nc1ncnc2c1ncn2[C@@H]1O[C@H](COP(=O)(O)OP(=O)(O)OP(=O)(O)O)[C@H]2OC3(O[C@H]21)C([N+](=O)[O-])=CC(=[N+]([O-])O)C=C3[N+](=O)[O-] (stereo partly shown) [TNP-ATP]
pKd: 3.97
